Patent US9862713B2, “Substituted bicyclic heteroaryl compounds as RXR agonists” (CONNEXIOS LIFE SCIENCES PVT. LTD., priority 2014, dated 2018)

Tested on: hRXR α, β, or γ
Assay: Transactivation assay (RARE-Luc dual luciferase reporter in HEK-293 cells), activity relative to LG268
Format: cell-based, human
Settings: 24 h, luciferase activity expressed relative to LG268; for Activity at 300 nM: compound at 300 nM; for Activity at 1 µM: compound at 1 µM
Description: HEK-293 cells (ATCC) were seeded one day prior to transfection. For assessing EC50 of activation of RXR isoforms 2 μg of hRXR α, β, or γ (OriGENE, USA) over-expressing vector, 1 μg of plasmid expressing firefly luciferase under RARE element (RARE-Luc) and 25 ng of renilla luciferase vector (QIAGEN, USA) were co-transfected using lipofectamine reagent. Post 24 h of transfection, cells were treated with different concentrations of RXR agonists (100 nM, 300 nM and 1 uM) for 24 h followed by estimation of luciferase activity using Dual Luciferase Reporter Assay System (Promega). Luciferase activity was normalized to that of renilla luciferase. The activities of the RXR compounds were expressed relative to LG268, a known RXR agonist.

SMILES: Cc1c(N(CC(C)C)c2ccc(C(=O)O)c(N)c2)sc2c1C(C)(C)CCC2(C)C [Compound 79, 2-amino-4-[(2-methylpropyl) (3,4,4,7,7-pentamethyl-4,5,6,7-tetrahydro-1-benzothiophen-2-yl)amino]benzoic acid]
- Activity at 300 nM: ***** (>0.6)

SMILES: CC1(C)CCC(C)(C)c2sc(Oc3ccc(C(=O)O)cc3)nc21 [Compound 46, 4-[(4,4,7,7-Tetramethyl-4,5,6,7-tetrahydro-1,3-benzothiazol-2-yl)oxy]benzoic acid]
- Activity at 300 nM: ** (>0.3 and <0.4)
- Activity at 1 µM: * (<0.7)

SMILES: Cc1c(N(CC(C)C)c2ccc(C(=O)O)c(OCC3CC3)c2)sc2c1C(C)(C)CCC2(C)C [Compound 55, 2-(cyclopropylmethoxy)-4-[(2-methylpropyl) (3,4,4,7,7-pentamethyl-4,5,6,7-tetrahydro-1-benzothiophen-2-yl)amino]benzoic acid]
- Activity at 300 nM: *** (>0.4 and <0.5)

SMILES: CC(C)CN(c1ccc(C(=O)O)cc1)c1nc2c(s1)C(C)(C)CC(=O)C2(C)C [Compound 53, 4-[(2-methylpropyl) (4,4,7,7-tetramethyl-5-oxo-4,5,6,7-tetrahydro-1,3-benzothiazol-2-yl)amino]benzoic acid]
- Activity at 300 nM: ***** (>0.6)

SMILES: Cc1c(N(C)c2ccc(C(=O)O)cc2)sc2c1C(C)(C)CCC2(C)C [Compound 8, 4-[Methyl(3,4,4,7,7-pentamethyl-4,5,6,7-tetrahydro-1-benzothiophen-2-yl)amino]benzoic acid]
- Activity at 1 µM: ***** (>1)

SMILES: COc1cc(C(=O)O)ccc1N(CC1CC1)c1nc2c(s1)C(C)(C)CCC2(C)C [Compound 71, 4-[(cyclopropylmethyl) (4,4,7,7-tetramethyl-4,5,6,7-tetrahydro-1,3-benzothiazol-2-yl)amino]-3-methoxybenzoic acid]
- Activity at 300 nM: * (<0.3)

SMILES: CC1(C)CCC(C)(C)c2sc(/C=C\c3ccc(C(=O)O)cc3)nc21 [Compound 49, 4-[(Z)-2-(4,4,7,7-Tetramethyl-4,5,6,7-tetrahydro-1,3-benzothiazol-2-yl)ethenyl]benzoic acid]
- Activity at 1 µM: ***** (>1)

SMILES: Cc1cc(N(CC(C)C)c2nc3c(s2)C(C)(C)CCC3(C)C)ccc1C(=O)O [Compound 58, 2-methyl-4-[(2-methylpropyl) (4,4,7,7-tetramethyl-4,5,6,7-tetrahydro-1,3-benzothiazol-2-yl)amino]benzoic acid]
- Activity at 300 nM: *** (>0.4 and <0.5)

SMILES: CC(=O)N(c1ccc(C(=O)O)cn1)c1nc2c(s1)C(C)(C)CCC2(C)C [Compound 85, 6-[acetyl(4,4,7,7-tetramethyl-4,5,6,7-tetrahydro-1,3-benzothiazol-2-yl)amino]pyridine-3-carboxylic acid]
- Activity at 300 nM: ** (>0.3 and <0.4)

SMILES: Cc1c(/C(=N/O)c2ccc(C(=O)O)cc2)sc2c1C(C)(C)CCC2(C)C [Compound 3, 4-[(E)-(Hydroxyimino) (3,4,4,7,7-pentamethyl-4,5,6,7-tetrahydro-1-benzothiophen-2-yl)methyl]benzoic acid]
- Activity at 1 µM: ***** (>1)

SMILES: Cc1c(/C=C/c2ccc(C(=O)O)cc2)sc2c1C(C)(C)CCC2(C)C [Compound 29, 4-[(E)-2-(3,4,4,7,7-Pentamethyl-4,5,6,7-tetrahydro-1-benzothiophen-2-yl)ethenyl]benzoic acid]
- Activity at 1 µM: ***** (>1)

SMILES: CC1(C)CCC(C)(C)c2sc(C(=O)c3ccc(C(=O)O)cn3)nc21 [Compound 95, 6-[(4,4,7,7-tetramethyl-4,5,6,7-tetrahydro-1,3-benzothiazol-2-yl)carbonyl]pyridine-3-carboxylic acid]
- Activity at 300 nM: ** (>0.3 and <0.4)

SMILES: CC1(C)CC(=O)C(C)(C)c2nc(N(CC3CC3)c3ccc(C(=O)O)cn3)sc21 [Compound 52, 6-[(cyclopropylmethyl) (4,4,7,7-tetramethyl-5-oxo-4,5,6,7-tetrahydro-1,3-benzothiazol-2-yl)amino]pyridine-3-carboxylic acid]
- Activity at 300 nM: ***** (>0.6)

SMILES: CC1(C)CC(O)C(C)(C)c2nc(N(CC3CC3)c3ccc(C(=O)O)cn3)sc21 (stereo not drawn) [Compound 86, 6-[(cyclopropylmethyl) (5-hydroxy-4,4,7,7-tetramethyl-4,5,6,7-tetrahydro-1,3-benzothiazol-2-yl)amino]pyridine-3-carboxylic acid]
- Activity at 300 nM: ***** (>0.6)

SMILES: COC1CC(C)(C)c2sc(N(CC3CC3)c3ccc(C(=O)O)cn3)nc2C1(C)C (stereo not drawn) [Compound 87, 6-[(cyclopropylmethyl) (5-methoxy-4,4,7,7-tetramethyl-4,5,6,7-tetrahydro-1,3-benzothiazol-2-yl)amino]pyridine-3-carboxylic acid]
- Activity at 300 nM: ***** (>0.6)

SMILES: CC1(C)CCC(C)(C)c2sc(N(C(=O)C3CCC3)c3ccc(C(=O)O)cn3)nc21 [Compound 84, 6-[(cyclobutylcarbonyl) (4,4,7,7-tetramethyl-4,5,6,7-tetrahydro-1,3-benzothiazol-2-yl)amino]pyridine-3-carboxylic acid]
- Activity at 300 nM: ** (>0.3 and <0.4)

SMILES: CCN(c1ccc(C(=O)O)cn1)c1sc2c(c1C)C(C)(C)CCC2(C)C [Compound 18, 6-[Ethyl(3,4,4,7,7-pentamethyl-4,5,6,7-tetrahydro-1-benzothiophen-2-yl)amino]pyridine-3-carboxylic acid]
- Activity at 1 µM: ***** (>1)

SMILES: CC1(C)CCC(C)(C)c2sc(N(c3ccc(C(=O)O)cc3)C3CC3)nc21 [Compound 36, 4-[Cyclopropyl(4,4,7,7-tetramethyl-4,5,6,7-tetrahydro-1,3-benzothiazol-2-yl)amino]benzoic acid]
- Activity at 1 µM: ***** (>1)

SMILES: COc1cc(N(CC(C)C)c2nc3c(s2)C(C)(C)CCC3(C)C)ccc1C(=O)O [Compound 73, 2-methoxy-4-[(2-methylpropyl) (4,4,7,7-tetramethyl-4,5,6,7-tetrahydro-1,3-benzothiazol-2-yl)amino]benzoic acid]
- Activity at 300 nM: ** (>0.3 and <0.4)

SMILES: CN(c1ccc(C(=O)O)cc1)c1nc2c(s1)C(C)(C)C=CC2(C)C [Compound 34, 4-[Methyl(4,4,7,7-tetramethyl-4,7-dihydro-1,3-benzothiazol-2-yl)amino]benzoic acid]
- Activity at 1 µM: ** (>0.7 and <0.8)

SMILES: Cc1c(C2(c3ccc(C(=O)O)cc3)CC2)sc2c1C(C)(C)CCC2(C)C [Compound 2, 4-[1-(3,4,4,7,7-pentamethyl-4,5,6,7-tetrahydro-1-benzothiophen-2-yl)cyclopropyl]benzoic acid]
- Activity at 1 µM: ***** (>1)

SMILES: CC1(C)CCC(C)(C)c2sc(N(c3ccc(C(=O)O)cc3)c3ccccn3)nc21 [Compound 101, 4-[pyridin-2-yl(4,4,7,7-tetramethyl-4,5,6,7-tetrahydro-1,3-benzothiazol-2-yl)amino]benzoic acid]
- Activity at 300 nM: *** (>0.4 and <0.5)

SMILES: Cc1c(N(c2ccc(C(=O)O)cc2)c2ccccn2)sc2c1C(C)(C)CCC2(C)C [Compound 103, 4-[(3,4,4,7,7-pentamethyl-4,5,6,7-tetrahydro-1-benzothiophen-2-yl) (pyridin-2-yl)amino]benzoic acid]
- Activity at 300 nM: ***** (>0.6)

SMILES: CC1(C)CCC(C)(C)c2sc(N(c3ccc(C(=O)O)cn3)C3CCC3)nc21 [Compound 99, 6-[cyclobutyl(4,4,7,7-tetramethyl-4,5,6,7-tetrahydro-1,3-benzothiazol-2-yl)amino]pyridine-3-carboxylic acid]
- Activity at 300 nM: ***** (>0.6)

SMILES: CC(C)CN(c1ccc(C(=O)O)cc1)c1nc2c(s1)C(C)(C)CC(NCc1ccccc1)C2(C)C (stereo not drawn) [Compound 90, 4-{[5-(benzylamino)-4,4,7,7-tetramethyl-4,5,6,7-tetrahydro-1,3-benzothiazol-2-yl](2-methylpropyl)amino}benzoic acid]
- Activity at 300 nM: ** (>0.3 and <0.4)

SMILES: CC(C)CN(c1ccc(C(=O)O)cn1)c1nc2c(s1)C(C)(C)C=CC2(C)C [Compound 82, 6-[(2-methylpropyl) (4,4,7,7-tetramethyl-4,7-dihydro-1,3-benzothiazol-2-yl)amino]pyridine-3-carboxylic acid]
- Activity at 300 nM: ***** (>0.6)

SMILES: Cc1cc(C(=O)O)ccc1N(CC1CC1)c1nc2c(s1)C(C)(C)CCC2(C)C [Compound 60, 4-[(cyclopropylmethyl) (4,4,7,7-tetramethyl-4,5,6,7-tetrahydro-1,3-benzothiazol-2-yl)amino]-3-methylbenzoic acid]
- Activity at 300 nM: ** (>0.3 and <0.4)

SMILES: C=C(c1ccc(C(=O)O)cc1)c1sc2c(c1C)C(C)(C)CCC2(C)C [Compound 1, 4-[1-(3,4,4,7,7-Pentamethyl-4,5,6,7-tetrahydro-1-benzothiophen-2-yl)ethenyl]benzoic acid]
- Activity at 1 µM: ***** (>1)

SMILES: CN(c1ccc(C(=O)O)cc1)c1nc2c(s1)C(C)(C)CCC2(C)C [Compound 33, 4-[Methyl(4,4,7,7-tetramethyl-4,5,6,7-tetrahydro-1,3-benzothiazol-2-yl)amino]benzoic acid]
- Activity at 1 µM: *** (>0.8 and <0.9)

SMILES: CCCN(c1ccc(C(=O)O)cn1)c1nc2c(s1)C(C)(C)CCC2(C)C [Compound 65, 6-[propyl(4,4,7,7-tetramethyl-4,5,6,7-tetrahydro-1,3-benzothiazol-2-yl)amino]pyridine-3-carboxylic acid]
- Activity at 300 nM: ***** (>0.6)

SMILES: Cc1c(N(c2ccc(C(=O)O)cn2)C2CC2)sc2c1C(C)(C)CCC2(C)C [Compound 19, 6-[Cyclopropyl(3,4,4,7,7-pentamethyl-4,5,6,7-tetrahydro-1-benzothiophen-2-yl)amino]pyridine-3-carboxylic acid]
- Activity at 1 µM: ***** (>1)

SMILES: Cc1c(N(c2ncc(C(=O)O)cn2)C2CC2)sc2c1C(C)(C)CCC2(C)C [Compound 24, 2-[Cyclopropyl(3,4,4,7,7-pentamethyl-4,5,6,7-tetrahydro-1-benzothiophen-2-yl)amino]pyrimidine-5-carboxylic acid]
- Activity at 1 µM: *** (>0.8 and <0.9)
